Test results from publication PMC10424176, “Chamelogk: A Chromatographic Chameleonicity Quantifier to Design Orally Bioavailable Beyond-Rule-of-5 Drugs” (Journal of Medicinal Chemistry, 2023).
Where two headings read alike, the source gives them in different places.

Key:
[1] = Chamelogk, chromatographic chameleonicity descriptor (PLRP-S RP-HPLC); assay type: physicochemical; settings: Exp. minus Ext. log k' PLRP-S at 100% MeCN, linear fit at 50, 60, 70% MeCN, 20 mM ammonium acetate pH 7.0, 30 °C
physchem = assay type: physicochemical
Experimental: (§1) The mobile phases for every descriptor consisted of isocratic solutions of 20 mM ammonium acetate at pH 7.0 and acetonitrile at various percentages (see the specific descriptor). Small amounts of the 55 compounds were dissolved in buffer/acetonitrile mixtures (v/v) at concentrations ranging from 50 to 100 μg/mL. Subsequently, 10 μL of each solution (injection volume) was injected at an isocratic flow rate of 1 mL/min and analyzed at 30 °C (oven temperature). Chromatographic measurements were then analyzed in duplicate based on the specific chromatographic conditions of each descriptor.
BRlogD[39] required the injection of 55 samples into the X-Bridge column at 60% MeCN (predominant mobile phase constituent). The retention times and dead time (t0, baseline interference) were recorded, and the capacity factor log k’60 was calculated adapting eq 2. Lastly, BRlogD value was calculated from eq 3 [drawing 3] 3

[2] = log kW^IAM and Δ log kW^IAM (IAM chromatography); assay type: physicochemical; settings: for log kW^IAM: IAM column, extrapolated to 100% buffer from 10 to 50% MeCN, pH 7.0; for Δ log kW^IAM: polarity, from log kW^IAM and BRlogD (eq 4, 5)
Experimental: as §1, with “descriptor. […] The retention times of the samples were recorded, and the capacity factor was calculated for each mobile phase condition adapting eq 2, where t0 is the retention time of citric acid.” for “descriptor.”

[3] = cited from earlier work

Row | Compound | Chamelogk [1] | other results
1 | c1ccc2ccccc2c1 [naphthalene] | 0.02 | 
2 | CC/C(=C(/CC)c1ccc(O)cc1)c1ccc(O)cc1 [diethylstilbestrol] | 0.44 | 
3 | COC(=O)C[C@@H]1N=C(c2ccc(Cl)cc2)c2c(sc(C(=O)NCCCCCNc3cccc4c3C(=O)N(C3CCC(=O)NC3=O)C4=O)c2C)-n2c(C)nnc21 (stereo partly drawn) [ZXH-3-26] | 0.65 | 
4 | O=C1CCC(N2C(=O)c3cccc(F)c3C2=O)C(=O)N1 (stereo not drawn) [4-F-thalidomide] | 0.23 | 
5 | Cc1sc2c(c1C)C(c1ccc(Cl)cc1)=N[C@@H](CC(=O)NCCCCCCCCNC(=O)COc1cccc3c1C(=O)N(C1CCC(=O)NC1=O)C3=O)c1nnc(C)n1-2 (stereo partly drawn) [dBET6] | 0.86 | 
6 | O=C1CCC(N2C(=O)c3cccc(O)c3C2=O)C(=O)N1 (stereo not drawn) [4-hydroxy thalidomide] | –0.16 | 
7 | COC(=O)C[C@@H]1N=C(c2ccc(Cl)cc2)c2c(sc(C)c2C)-n2c(C)nnc21 [MS-417] | 0.29 | 
8 | Cc1sc2c(c1C)C(c1ccc(Cl)cc1)=N[C@@H](CC(=O)Nc1ccc(O)cc1)c1nnc(C)n1-2 [OTX-015] | 0.64 | 
9 | Brc1cnc2ccccc2c1 [3-bromoquinoline] | 0.13 | 
10 | CC(=O)O[C@H]1C(=O)[C@@]2(C)[C@H]([C@H](OC(=O)c3ccccc3)[C@]3(O)C[C@H](OC(=O)[C@H](O)[C@@H](NC(=O)c4ccccc4)c4ccccc4)C(C)=C1C3(C)C)[C@]1(OC(C)=O)CO[C@@H]1C[C@@H]2O [paclitaxel] | 0.15 | 
11 | Cc1ncsc1-c1ccc(CNC(=O)[C@@H]2C[C@@H](O)CN2C(=O)[C@@H](NC(=O)CCOCCOc2ccc(Nc3ncc(C(F)(F)F)c(NCc4cccc(N(C)S(C)(=O)=O)c4)n3)cc2)C(C)(C)C)cc1 [PROTAC FAK degrader-1] | 0.79 | 
12 | COc1cc(C(=O)NCCOCCOCCOCCC(=O)Nc2cccc3c2C(=O)N(C2CCC(=O)NC2=O)C3=O)ccc1Nc1ncc(C(F)(F)F)c(Oc2cccc3c2C(=O)CC3)n1 (stereo not drawn) [BI-3663] | 0.5 | 
13 | CC(=O)N1c2ccc(-c3ccc(C(=O)NCCOCCOCCOCC(=O)N[C@H](C(=O)N4C[C@H](O)C[C@H]4C(=O)NCc4ccc(-c5scnc5C)cc4)C(C)(C)C)cc3)cc2[C@H](Nc2ccc(Cl)cc2)C[C@@H]1C [MZP-54] | 1.18 | 
14 | CC(C)=O [acetone] | –0.13 | 
15 | CC(=O)N[C@H](C(=O)N1C[C@@H](O)C[C@H]1C(=O)NCc1ccc(-c2scnc2C)cc1O)C(C)(C)C [cis-phenol-VH032 (S,S,S)] | 0.65 | 
16 | O=C(CCCCC(=O)NCCN1C(=O)c2cccc3c(Sc4ccc(Br)cc4)ccc(c23)C1=O)NCCCCCCNc1cccc2c1C(=O)N(C1CCC(=O)NC1=O)C2=O (stereo not drawn) [PROTAC Mcl degrader-1] | 0.93 | 
17 | Oc1ccccc1 [phenol] | 0.16 | 
18 | CCN1C(=O)c2cc(C)ccc2Nc2ncccc21 [BI-1580] | 0.1 | 
19 | CC[C@@H]1/C=C(\C)C[C@H](C)C[C@H](OC)[C@H]2O[C@@](O)(C(=O)C(=O)N3CCCC[C@H]3C(=O)O[C@H](/C(C)=C/[C@@H]3CC[C@H](Cl)[C@H](OC)C3)[C@H](C)[C@@H](O)CC1=O)[C@H](C)C[C@@H]2OC [pimecrolimus] | 0.43 | chromatographic logD (physchem; pH 7): 6.52; log kW^IAM [2]: 3.35; Δ log kW^IAM [2]: -1.62
20 | Cc1sc2c(c1C)C(c1ccc(Cl)cc1)=NC(CC(N)=O)c1nnc(C)n1-2 (stereo not drawn) [CPI203] | 0.54 | 
21 | Cc1c(O)cccc1C(=O)N[C@@H](CSc1ccccc1)[C@H](O)CN1C[C@H]2CCCC[C@H]2C[C@H]1C(=O)NC(C)(C)C [nelfinavir] | 0.74 | chromatographic logD (physchem; XBridge Shield RP18 HPLC column, XBridge column, 60% MeCN, pH 7.0, read-out: BRlogD): 4.73; BRlogD (physchem; XBridge column, 60% MeCN, pH 7.0): below 5; log kW^IAM [2]: 2.69; Δ log kW^IAM [2]: -0.63; ChameLogD [3]: 1.4

Row | Compound | Chamelogk [1] | other results
22 | CC(=O)N[C@H](C(=O)N1C[C@H](O)C[C@H]1C(=O)NCc1ccc(-c2scnc2C)cc1)C(C)(C)SCCCCCCNC(=O)C[C@@H]1N=C(c2ccc(Cl)cc2)c2c(sc(C)c2C)-n2c(C)nnc21 [BRD4 degrader AT1] | 1.26 | 
23 | Nc1cccc2c1C(=O)N(C1CCC(=O)NC1=O)C2=O (stereo not drawn) [pomalidomide] | 0.00 | Chamelogk ([1]; listed as Pomalidomide): 0
24 | Cc1ncsc1-c1ccc(CNC(=O)[C@@H]2C[C@@H](O)CN2C(=O)[C@@H](NC(=O)COCCOCCNC(=O)COc2cnc3c(C4CCN(C(=O)c5ccc(OC(F)(F)F)cc5)CC4)ncnc3c2)C(C)(C)C)cc1 [PROTAC-1] | 1.07 | 
25 | Cc1sc2c(c1C)C(c1ccc(Cl)cc1)=N[C@@H](CC(=O)NCCCCCC(=O)NCc1cccc3c1C(=O)N(C1CCC(=O)NC1=O)C3=O)c1nnc(C)n1-2 (stereo partly drawn) [PROTAC BET degrader-10] | 0.83 | 
26 | COc1cc2ncnc(Nc3ccc(F)c(Cl)c3)c2cc1OCCCCCOCCOCCC(=O)N[C@H](C(=O)N1C[C@H](O)C[C@H]1C(=O)NCc1ccc(-c2scnc2C)cc1)C(C)(C)C [gefitinib-based PROTAC 3] | 1.36 | 
27 | Clc1ccccc1C(c1ccccc1)(c1ccccc1)n1ccnc1 [clotrimazole] | 0.71 | 
28 | COc1cc(C(=O)NCCOCCOCCOCC(=O)N[C@H](C(=O)N2C[C@H](O)C[C@H]2C(=O)NCc2ccc(-c3scnc3C)cc2)C(C)(C)C)ccc1Nc1ncc(C(F)(F)F)c(Oc2cccc3c2C(=O)CC3)n1 [BI-0319] | 0.99 | 
29 | COc1cc(C(=O)NCCOCCOCCOCC(=O)N[C@H](C(=O)N2C[C@@H](O)C[C@H]2C(=O)NCc2ccc(-c3scnc3C)cc2)C(C)(C)C)ccc1Nc1ncc(C(F)(F)F)c(Oc2cccc3c2C(=O)CC3)n1 [BI-4206] | 0.7 | 
30 | C[C@]12CCC(=O)C=C1CC[C@@H]1[C@@H]2[C@@H](O)C[C@@]2(C)[C@H]1CC[C@]2(O)C(=O)CO [hydrocortisone] | 0.10 | Chamelogk ([1]; listed as Hydrocortisone): 0.1
31 | CCn1nc(C2CC2)cc1Nc1nc(C(=O)NC)nc2[nH]c3cc(-c4c(C)noc4C)c(OC)cc3c12 [HJB97] | 0.15 | 
32 | CO[C@H]1C[C@@H]2CC[C@@H](C)[C@@](O)(O2)C(=O)C(=O)N2CCCC[C@H]2C(=O)O[C@H]([C@H](C)C[C@@H]2CC[C@@H](OC(=O)C(C)(CO)CO)[C@H](OC)C2)CC(=O)[C@H](C)/C=C(\C)[C@@H](O)[C@@H](OC)C(=O)[C@H](C)C[C@H](C)/C=C/C=C/C=C/1C [temsirolimus] | 0.23 | ChameLogD [3]: 2
33 | Cc1ncsc1-c1ccc(CNC(=O)[C@@H]2C[C@H](O)CN2C(=O)[C@@H](NC(=O)C2(C#N)CC2)C(C)(C)C)c(O)c1 [cis-OH-VH298 (S,S,S)] | 0.45 | 
34 | Cc1ncsc1-c1ccc(CNC(=O)[C@@H]2C[C@@H](O)CN2C(=O)[C@@H](NC(=O)CCCCOCCCCCOCCCCCCNc2cccc3c2C(=O)N(C2CCC(=O)NC2=O)C3=O)C(C)(C)C)cc1 (stereo partly drawn) [CRBN-6-5-5-VHL] | 1.05 | 
35 | Nc1ccc(OCCOCCOCCOCCNc2cccc3c2C(=O)N(C2CCC(=O)NC2=O)C3=O)cc1 (stereo not drawn) [PEG4-PH-NH2-pomalidomide] | 0.12 | 
36 | c1ccc(-c2ccc(C(c3ccccc3)n3ccnc3)cc2)cc1 (stereo not drawn) [bifonazole] | 0.45 | 
37 | CC(=O)N[C@H](C(=O)N1C[C@H](O)C[C@H]1C(=O)NCc1ccc(-c2scnc2C)cc1O)C(C)(C)C [phenol-VH032 (S,R,S)] | 0.37 | 
38 | C=C/C=C/C[C@@H](C)[C@@H](O)[C@H]1C(=O)N[C@@H](CC)C(=O)N(C)CC(=O)N(C)[C@@H](CC(C)C)C(=O)N[C@@H](C(C)C)C(=O)N(C)[C@@H](CC(C)C)C(=O)N[C@@H](C)C(=O)N[C@H](C)C(=O)N(C)[C@@H](CC(C)C)C(=O)N(C)[C@@H](CC(C)C)C(=O)N(C)[C@@H](C(C)C)C(=O)N1C [voclosporin] | 1.15 | 
39 | CN1C(=O)CN=C(c2ccccc2)c2cc(Cl)ccc21 [diazepam] | 0.30 | Chamelogk ([1]; listed as Diazepam): 0.3
40 | Cc1sc2c(c1C)C(c1ccc(Cl)cc1)=N[C@@H](CC(=O)NCCCCNC(=O)COc1cccc3c1C(=O)N(C1CCC(=O)NC1=O)C3=O)c1nnc(C)n1-2 (stereo partly drawn) [dBET1] | 0.8 | 
41 | Cc1ncsc1-c1ccc(CNC(=O)[C@@H]2C[C@@H](O)CN2C(=O)[C@@H](NC(=O)C2(C#N)CC2)C(C)(C)C)c(O)c1 [OH-VH298 (S,R,S)] | 0.48 | 
42 | CCCN1C(=O)c2ccc(Cl)cc2Nc2ncccc21 [BI-0115] | 0.19 | 
